Laboratory results reported in paper PMC10454396 (International Journal of Molecular Sciences, 2023).
Converted amounts (≈) assume the structure as drawn. Like-named read-outs stand apart in the source and are kept apart here.

Tests used:
[1] = system: Staphylococcus aureus Newman mCherry; experiment: MIC, broth microdilution, mCherry-expressing S. aureus Newman; format: cell-based
Procedure: (§1) Cefazolin was obtained from Acros Organics. Ciprofloxacin hydrochloride, linezolid and vancomycin hydrochloride were obtained from Sigma-Aldrich (St. Louis, MO, USA). Tetracycline hydrochloride was obtained from Alfa Aesar. Sorangicin A was provided by HZI, Braunschweig. Stock solutions were prepared in Milli-Q water or dimethyl sulfoxide (DMSO, Sigma-Aldrich). Minimum inhibitory concentrations (MICs) were determined in cation-adjusted Mueller-Hinton broth (MHB2) using the broth microdilution method as recommended by the Clinical and Laboratory Standards Institute (CLSI). The MIC was defined as the lowest concentration of the antibiotic causing complete inhibition of visible growth of the microorganism (CLSI, 2017).
(§2) 1. In vitro characterization of mCherry expressing Staphylococcus aureus Newman
(§3) 1.1 Minimum inhibitory concentration
(§4) Table S1. Antibiotic susceptibility profile of Staphylococcus aureus Newman. WT: wild type. […]

[2] = system: Staphylococcus aureus Newman WT; experiment: MIC, broth microdilution, S. aureus Newman wild type; format: cell-based
Procedure: as §1, §2, §3, §4

[3] = system: mCherry-expressing S. aureus Newman; experiment: Zebrafish embryo model of S. aureus yolk infection, antibiotic treatment efficacy; format: in vivo, Staphylococcus aureus
Procedure: With the aim to study the in vivo efficacy of drugs, 30 hpf zebrafish embryos were infected with 50 CFU of mCherry-expressing S. aureus Newman. Embryos were then left to recover from injection for two hours and subsequently treated with various reference antibiotics. Antibiotic treatment was performed via bath water immersion as well as via microinjection into the yolk (local treatment) and the caudal vein (systemic treatment) to study whether differences in in vivo activity exist between the three administration routes. Survival was assessed daily until 120 hpf. Additionally, the infection was visualized and quantified by means of fluorescence microscopy at 24 h post treatment (hpt). At the end of every experiment, living embryos (and dead embryos, if possible) were homogenized to determine the remaining bacterial count. Five approved antibiotics from different classes were assessed in vivo. The chosen drugs ought to differ in physicochemical properties, such as molecular weight and polarity, in order to detect a pattern between successful administration routes and the physicochemical properties of the drug. Prior to efficacy assessment, drug-mediated toxicity in zebrafish embryos was investigated using the same administration routes (Figure S3). For microinjection, a fixed dose of 20 to 30 mg/kg was used for each antibiotic. The concentration for bath water immersion was based on the minimum inhibitory concentration (MIC) and the maximum tolerated concentration (MTC) of the drug, whereby it is generally recommended to use 50- to 100-fold the antibacterial MIC to see a positive effect.
Pulled glass capillaries for microinjection (Table S2) were prepared using a micropipette puller (P-1000, Sutter Instrument). Dechorionated and anaesthetized embryos were infected with 50 colony-forming units (CFU) of mCherry-expressing S. aureus Newman by microinjection into the yolk sac at 30 hpf. In order to confirm bacterial numbers, an equal volume of bacterial cells was ejected onto Tryptic Soy Agar (TSA) supplemented with 10 µg/mL chloramphenicol before and after the injection. Antibiotic treatment was performed two hours post infection (hpi) via three different administration routes, namely bath water immersion and microinjection into the yolk sac as well as the caudal vein (CV). The infection procedure and treatment of infected embryos are described in details in the supplementary materials (Table S3).
Embryos were transferred individually to microcentrifuge tubes and washed at least three times with sterile PBS. 200 µL of sterile PBS were added and embryos were mechanically homogenized using a micropestle (Carl Roth, Karlsruhe, Germany). 800 µL of sterile PBS were added to reach a final volume of 1 mL. The homogenates were diluted and plated on tryptic soy agar (TSA). CFU counts were determined after 24 h of incubation at 37 °C.
Embryos were placed in a black 96-well plate (Falcon; Thermo Fisher, Dreieich, Germany) and cryo-anaesthetized by submersion into ice water. Images for quantitative fluorescence analysis were acquired using the following equipment: a fluorescence stereo microscope (M205 FA, Leica Microsystems, Wetzlar, Germany) in combination with a fluorescence illuminator (X-Cite, 200DC, Excelitas Technologies, Waltham, MA, USA) and a microscope camera (DFC7000 T, Leica Microsystems). Quantification of fluorescence was performed using Fiji ImageJ version 2.1.0. Fluorescent Integrated Density (FID) was determined by counting the number of pixels with fluorescence intensity greater than the threshold (10) and multiplying the count with its mean intensity. For confocal imaging, embryos were anaesthetized through immersion in tricaine (945 µM, Sigma-Aldrich) and immobilized in 1.2% low-melting agarose in a flat-bottom 96-well plate. Confocal images and time-lapse series were acquired using the Celldiscoverer 7 with LSM 900 (Zeiss) together with the 5×/0.35 Plan-APOCHROMAT objective.
2. […]

zebrafish embryos = experiment: Toxicity of antimicrobials on zebrafish embryos; format: in vivo, Danio rerio; conditions: bath water immersion 50x MIC, no bacteria recovered from dead embryos
Procedure: Toxicity of antibiotics was assessed by aquatic exposure and microinjection. For evaluation of the maximum tolerated concentration (MTC) by aquatic exposure, embryos were dechorionated at 30 hpf and placed in a flat-bottom 96-well plate (Sarstedt) with one embryo per well. Excess medium was removed and 150 µL of compound dilutions (in 0.3× Danieau’s, maximum of 1% DMSO) were added. For each antibiotic, a range of concentrations was investigated. Ten embryos were used per concentration and ten additional embryos incubated in fish medium without any antibiotic served as negative control. Microinjection of antibiotics into the caudal vein (CV) and the yolk sac was performed as described earlier. PBS-injected embryos served as negative control. Exposed embryos were maintained at 28 °C throughout the whole experiment. Embryos were monitored daily under a stereo microscope (Stemi 508, Zeiss) in order to record survival as well as anomalies, pigmentation, heartbeat and locomotor responses. An embryo was considered dead when no heart beat could be observed.

[4] = Staphylococcus aureus, S. aureus Newman WT, MHB2 broth microdilution, read-out: MIC
[5] = bath water immersion 50-100x MIC
[6] = caudal vein microinjection 20-30 mg/kg, 2 hpi
[7] = yolk microinjection 20-30 mg/kg, 2 hpi
[8] = S. aureus Newman mCherry, MHB2 broth microdilution
[9] = S. aureus Newman WT, MHB2 broth microdilution

Row | Compound | MIC [2, 4] | bacterial fluorescence (FID) at 24 hpt ([3]; bath water immersion) | effect on survival of infected embryos [3, 5] | bacterial fluorescence (FID) at 24 hpt ([3]; caudal vein microinjection) | effect on survival of infected embryos [3, 6] | bacterial fluorescence (FID) at 24 hpt ([3]; yolk microinjection) | effect on survival of infected embryos [3, 7] | also measured
1 | CC1(C)S[C@@H]2[C@H](NC(=O)[C@H](N)c3ccccc3)C(=O)N2[C@H]1C(=O)O [ampicillin] | 0.125 µg/mL (≈ 0.358 µM) | – | – | – | – | – | – | MIC ([1]; Staphylococcus aureus, NEWMAN): 0.5 µg/mL (≈ 1.43 µM)
2 | Cc1nnc(SCC2=C(C(=O)O)N3C(=O)[C@@H](NC(=O)Cn4cnnn4)[C@H]3SC2)s1 [cefazolin] | – | FID values equal to the positive control | did not show any effect | No fluorescence was observed | exhibit treatment efficacy | No fluorescence was observed | exhibit treatment efficacy | bacteria recovered (CFU plating) at 120 hpf ([3]; caudal vein microinjection): no colonies were recovered; bacteria recovered (CFU plating) at 120 hpf ([3]; yolk microinjection): no colonies were recovered
3 | O=C(N[C@H](CO)[C@H](O)c1ccc([N+](=O)[O-])cc1)C(Cl)Cl [chloramphenicol] | 8 µg/mL (≈ 24.8 µM) | – | – | – | – | – | – | MIC ([1]; Staphylococcus aureus, NEWMAN): 64 µg/mL (≈ 198 µM)
4 | O=C(O)c1cn(C2CC2)c2cc(N3CCNCC3)c(F)cc2c1=O [ciprofloxacin] | 0.25 µg/mL (≈ 0.754 µM) | a decrease in FID values | slightly prolong survival | No fluorescence was observed | exhibit treatment efficacy | No fluorescence was observed | exhibit treatment efficacy | embryos died due to infection ([3]; bath water immersion, 50 CFU yolk infection): more than 80%; bacteria recovered (CFU plating) at 120 hpf ([3]; caudal vein microinjection): no colonies were recovered; bacteria recovered (CFU plating) at 120 hpf ([3]; yolk microinjection): no colonies were recovered
5 | CC[C@H]1OC(=O)[C@H](C)[C@@H](O[C@H]2C[C@@](C)(OC)[C@@H](O)[C@H](C)O2)[C@H](C)[C@@H](O[C@@H]2O[C@H](C)C[C@H](N(C)C)[C@H]2O)[C@](C)(OC)C[C@@H](C)C(=O)[C@H](C)[C@@H](O)[C@]1(C)O [clarithromycin] | 0.25 µg/mL (≈ 0.334 µM) | – | – | – | – | – | – | –
6 | CCCCCCCCCC(=O)N[C@@H](Cc1c[nH]c2ccccc12)C(=O)N[C@H](CC(N)=O)C(=O)N[C@@H](CC(=O)O)C(=O)N[C@@H]1C(=O)NCC(=O)N[C@@H](CCCN)C(=O)N[C@@H](CC(=O)O)C(=O)N[C@H](C)C(=O)N[C@@H](CC(=O)O)C(=O)NCC(=O)N[C@H](CO)C(=O)N[C@@H]([C@H](C)CC(=O)O)C(=O)N[C@@H](CC(=O)c2ccccc2N)C(=O)O[C@@H]1C [daptomycin] | 2 µg/mL (≈ 1.23 µM) | – | – | – | – | – | – | –
7 | CC[C@H]1OC(=O)[C@H](C)[C@@H](O[C@H]2C[C@@](C)(OC)[C@@H](O)[C@H](C)O2)[C@H](C)[C@@H](O[C@@H]2O[C@H](C)C[C@H](N(C)C)[C@H]2O)[C@](C)(O)C[C@@H](C)C(=O)[C@H](C)[C@@H](O)[C@]1(C)O [erythromycin] | 0.25 µg/mL (≈ 0.341 µM) | – | – | – | – | – | – | –
8 | CNC(C)C1CCC(N)C(OC2C(N)CC(N)C(OC3OCC(C)(O)C(NC)C3O)C2O)O1 (centres unmarked) [gentamicin] | 0.5 µg/mL (≈ 1.05 µM) | – | – | – | – | – | – | –
9 | NC[C@H]1O[C@H](O[C@H]2[C@H](O)[C@@H](O[C@H]3O[C@H](CO)[C@@H](O)[C@H](N)[C@H]3O)[C@H](N)C[C@@H]2N)[C@H](O)[C@@H](O)[C@@H]1O [kanamycin] | – | – | – | – | – | – | – | MIC [1, 8]: 4 µg/mL (≈ 8.26 µM); MIC [2, 9]: 4 µg/mL (≈ 8.26 µM)
10 | CC(=O)NC[C@H]1CN(c2ccc(N3CCOCC3)c(F)c2)C(=O)O1 [linezolid] | 2 µg/mL (≈ 5.93 µM) | No fluorescence was recorded | significantly (p < 0.0001) prolonged the survival | No fluorescence was recorded | significantly (p < 0.0001) prolonged the survival | No fluorescence was recorded | significantly (p < 0.0001) prolonged the survival | cause of death of embryos in immersion group (zebrafish embryos): potential toxic effect; recovery from infection (fluorescence microscopy and CFU plating) ([3]; bath water immersion 50x MIC): full recovery from infection; survival ([3]; bath water immersion, treatment 2 hpi, 50 CFU yolk infection, until 120 hpf): 90%; mortality rate ([3]; yolk and caudal vein injection 2 hpi, 50 CFU yolk infection): greater than 75%; bacterial numbers ([3]; yolk and caudal vein injection, embryos with lethal infection): exceeding 10^5 CFU/embryo
11 | CN(C)[C@@H]1C(O)=C(C(N)=O)C(=O)[C@@]2(O)C(O)=C3C(=O)c4c(O)cccc4[C@@](C)(O)[C@H]3C[C@@H]12 [tetracycline] | 0.25 µg/mL (≈ 0.563 µM) | FID values equal to the positive control | did not show any effect | No fluorescence was observed | exhibit treatment efficacy | No fluorescence was observed | exhibit treatment efficacy | bacteria recovered (CFU plating) at 120 hpf ([3]; caudal vein microinjection): no colonies were recovered; bacteria recovered (CFU plating) at 120 hpf ([3]; yolk microinjection): no colonies were recovered
12 | NC[C@H]1O[C@H](O[C@H]2[C@H](O)[C@@H](O[C@H]3O[C@H](CO)[C@@H](O)[C@H](N)[C@H]3O)[C@H](N)C[C@@H]2N)[C@H](N)C[C@@H]1O [tobramycin] | 0.5 µg/mL (≈ 1.07 µM) | – | – | – | – | – | – | –
13 | CN[C@H](CC(C)C)C(=O)N[C@H]1C(=O)N[C@@H](CC(N)=O)C(=O)N[C@H]2C(=O)N[C@H]3C(=O)N[C@H](C(=O)N[C@H](C(=O)O)c4cc(O)cc(O)c4-c4cc3ccc4O)[C@H](O)c3ccc(c(Cl)c3)Oc3cc2cc(c3O[C@@H]2O[C@H](CO)[C@@H](O)[C@H](O)[C@H]2O[C@H]2C[C@](C)(N)[C@H](O)[C@H](C)O2)Oc2ccc(cc2Cl)[C@H]1O [vancomycin] | – | no reduction in bacterial fluorescence | No increased survival | no reduction in bacterial fluorescence | No increased survival | no development of fluorescence | prevented embryo death | MIC ([1]; Staphylococcus aureus, NEWMAN): 2 µg/mL (≈ 1.38 µM); MIC ([2]; Staphylococcus aureus, NEWMAN): 2 µg/mL (≈ 1.38 µM); survival ([3]; yolk microinjection (local treatment) 2 hpi, 50 CFU yolk infection): 90%; colonies recovered at the end of the experiment ([3]; yolk-treated embryos): 0–2500 CFU
14 | teicoplanin | – | – | – | – | – | – | – | MIC [1, 8]: 1 µg/mL; MIC [2, 9]: 1 µg/mL
